Publication PMC8557866, “Novel Small Molecule Growth Inhibitor Affecting Bacterial Outer Membrane Reduces Extraintestinal Pathogenic Escherichia coli (ExPEC) Infection in Avian Model” (Microbiology Spectrum, 2021)
≈ marks a conversion by molar mass, not a printed value.

Legend:
[1] = tested on: APEC O78; parameters: method as in PMID 30333507; settings: cited from earlier work
[2] = tested on: APEC serotype O78; settings: for Mean APEC load, Heart / Mean APEC load, Kidney / Mean APEC load, Liver / Mean APEC load, Lung / Mean lesion score in Air sacs / Mean lesion score in Heart / Mean lesion score in Liver / Mean lesion score in Lung / Cumulative lesion score / Mortality reduction compared to PC group / % reduction in severity, Air sacs lesions / % reduction in severity, Heart lesions / % reduction in severity, Liver lesions / % reduction in severity, Lung lesions / log reduction in APEC load, Heart / log reduction in APEC load, Kidney / log reduction in APEC load, Liver / log reduction in APEC load, Lung: efficacy trial, oral; for Cumulative lesion score: PC 6.2; for Mortality reduction compared to PC group: PC mortality 58.3%; for % reduction in severity, Air sacs lesions / % reduction in severity, Heart lesions / % reduction in severity, Liver lesions / % reduction in severity, Lung lesions / log reduction in APEC load, Heart / log reduction in APEC load, Kidney / log reduction in APEC load, Liver / log reduction in APEC load, Lung: vs PC; for BWG (body weight gain): in vivo
Protocol: The efficacy of GIs was assessed using commercial broiler chickens (n = 6/group). […] GI compounds (ChemBridge, San Diego, CA) dissolved in dimethyl sulfoxide (DMSO) were administered orally using a syringe, twice a day, from day 4 (1 day before APEC infection) to day 8 (3 days postinfection [dpi]). The dose of each GI is described in Table S1. […] Chickens that were infected and vehicle-treated (positive control [PC]) and noninfected and nontreated (negative control [NC]) were included as controls. On day 5, chickens were infected subcutaneously (s.c.) with rifampin-resistant (Rif^r) APEC serotype O78 ([18]) (1 × 10^7 CFU/chicken). […] To prepare the APEC inoculum for infection, Rif^r APEC O78 (50 μg/ml rifampin) was grown to logarithmic phase in LB medium, washed twice with phosphate-buffered saline (PBS), and adjusted to an optical density at 600 nm (OD600) of 0.1 (5 × 10^7 CFU/ml). The clinical signs and mortality were recorded until 7 dpi. Chickens that died during this period were necropsied on the same day, lesions in internal organs (liver, heart, lung, and air sacs) were scored as described previously ([63], [71]), and the APEC loads were quantified in internal organs (liver, heart, lung, and kidney) by plating the tissue homogenates on MacConkey agar plates containing 50 μg/ml rifampin ([18]). At 7 dpi (day 12), all live birds were euthanized, lesions were scored, and the APEC loads in internal organs were quantified as described above. The body weight of chickens was measured before GI treatment (day 3) and at the day of necropsy (day 12).

[3] = Pharmacokinetic study in plasma of chickens (LC-MS); assay type: in vivo; settings: plasma
Protocol: Details of the methods are included in the supplemental material. page 3: previously(3). […] The mixtures were then incubated at […] for 30 min and proteins were removed by ultracentrifugation at 13,000xg for 25 min at 2 °C.

[4] = Quantification of residue in chicken tissues (LC-MS); assay type: in vivo, chickens
Excerpt: Chickens (n = 5/time point) from an experimental set-up as described above for the floor trial were sacrificed at 2 days (day 13; 2 DPLT), 5 days (day 16; 5 DPLT), and 31 days (day 42; 31 DPLT) post-last treatment. […] Tissue samples from chickens treated with SDM were used for comparison. […] Details of the methods are included in the supplemental material.

[5] = tested on: APEC O78; test: Comparative efficacy of GI-7 and sulfadimethoxine, floor trial; assay type: in vivo, commercial broiler chickens; parameters: % reduction in severity, Liver lesions / % reduction in severity, Heart lesions / % reduction in severity, Lung lesions / % reduction in severity, Air sacs lesions: concentration or dose not given beside the values; Cumulative lesion score / Mean lesion score in Liver / Mean lesion score in Heart / Mean lesion score in Lung / Mean lesion score in Air sacs: scale not given here
Protocol: At day 13 (7 dpi), half of the chickens from each group, and at day 42 (slaughter age), 10 chickens from each group were necropsied and lesions and APEC loads were assessed as described above.

[6] = comparative efficacy trial, vs PC
[7] = comparative efficacy, GI-7 60 mg/liter, SDM 495.3 mg/liter, 7 dpi

Compound: CC1CCCN(CCC(=O)c2ccc(Br)cc2)C1 (centres unmarked) [GI-1]
- MIC [1]: 200 µM (≈ 62 µg/mL)
- Mean APEC load, Heart [2]: 6.8 Log CFU/g tissues
- Mean APEC load, Kidney [2]: 6.6 Log CFU/g tissues
- Mean APEC load, Liver [2]: 6.7 Log CFU/g tissues
- Mean APEC load, Lung [2]: 6.4 Log CFU/g tissues
- Mean lesion score in Air sacs [2]: 1.5
- Mean lesion score in Heart [2]: 2.0
- Mean lesion score in Liver [2]: 2.0
- Mean lesion score in Lung [2]: 0.7
- Cumulative lesion score [2]: 6.2
- Mortality reduction compared to PC group [2]: 8.3%
- % reduction in severity, Air sacs lesions [2]: −5.9%
- % reduction in severity, Heart lesions [2]: 4%
- % reduction in severity, Liver lesions [2]: −20%
- % reduction in severity, Lung lesions [2]: 33.3%
- log reduction in APEC load, Heart [2]: -1.8 Log CFU/g tissues
- log reduction in APEC load, Kidney [2]: -1.1 Log CFU/g tissues
- log reduction in APEC load, Liver [2]: -2.0 Log CFU/g tissues
- log reduction in APEC load, Lung [2]: -1.4 Log CFU/g tissues
- BWG (body weight gain) [2]: 165.6±69.2

Compound: COc1cc(CNCCc2ccc3ccccc3c2)ccc1OCC(O)CN1CCCC1 (centres unmarked) [GI-2]
- MIC [1]: 100 µM (≈ 43.5 µg/mL)
- Mean APEC load, Heart [2]: 4.1 Log CFU/g tissues
- Mean APEC load, Kidney [2]: 3.8 Log CFU/g tissues
- Mean APEC load, Liver [2]: 3.4 Log CFU/g tissues
- Mean APEC load, Lung [2]: 3.5 Log CFU/g tissues
- Mean lesion score in Air sacs [2]: 1.2
- Mean lesion score in Heart [2]: 1.8
- Mean lesion score in Liver [2]: 1.7
- Mean lesion score in Lung [2]: 0.7
- Cumulative lesion score [2]: 5.3
- Mortality reduction compared to PC group [2]: 25%
- % reduction in severity, Air sacs lesions [2]: 17.7%
- % reduction in severity, Heart lesions [2]: 12%
- % reduction in severity, Liver lesions [2]: 0%
- % reduction in severity, Lung lesions [2]: 33.3%
- log reduction in APEC load, Heart [2]: 0.8 Log CFU/g tissues
- log reduction in APEC load, Kidney [2]: 1.7 Log CFU/g tissues
- log reduction in APEC load, Liver [2]: 0.9 Log CFU/g tissues
- log reduction in APEC load, Lung [2]: 1.1 Log CFU/g tissues
- BWG (body weight gain) [2]: 125.5±34.7

Compound: COc1cc(CNCCc2ccc(C)cc2)ccc1OCC(O)CN1CCCC1 (centres unmarked) [GI-3]
- MIC [1]: 100 µM (≈ 39.9 µg/mL)
- Mean APEC load, Heart [2]: 7.0 Log CFU/g tissues
- Mean APEC load, Kidney [2]: 6.9 Log CFU/g tissues
- Mean APEC load, Liver [2]: 6.5 Log CFU/g tissues
- Mean APEC load, Lung [2]: 7.0 Log CFU/g tissues
- Mean lesion score in Air sacs [2]: 1.8
- Mean lesion score in Heart [2]: 2
- Mean lesion score in Liver [2]: 2
- Mean lesion score in Lung [2]: 1
- Cumulative lesion score [2]: 6.8
- % reduction in severity, Air sacs lesions [2]: −29.4%
- % reduction in severity, Heart lesions [2]: 4%
- % reduction in severity, Liver lesions [2]: −20%
- % reduction in severity, Lung lesions [2]: 0%
- log reduction in APEC load, Heart [2]: -2.1 Log CFU/g tissues
- log reduction in APEC load, Kidney [2]: -1.4 Log CFU/g tissues
- log reduction in APEC load, Liver [2]: -1.8 Log CFU/g tissues
- log reduction in APEC load, Lung [2]: -2.0 Log CFU/g tissues
- BWG (body weight gain) [2]: 254.6±95

Compound: CCN1/C(=C/c2ccc3ccccc3[n+]2CC)C=Cc2ccccc21 [GI-9]
- MIC [1]: 25 µM
- Mean APEC load, Heart [2]: 5.9 Log CFU/g tissues
- Mean APEC load, Kidney [2]: 5.7 Log CFU/g tissues
- Mean APEC load, Liver [2]: 4.7 Log CFU/g tissues
- Mean APEC load, Lung [2]: 5.6 Log CFU/g tissues
- Mean lesion score in Air sacs [2]: 2.7
- Mean lesion score in Heart [2]: 3.3
- Mean lesion score in Liver [2]: 2.5
- Cumulative lesion score [2]: 9.7
- Mortality reduction compared to PC group [2]: 25%
- % reduction in severity, Air sacs lesions [2]: −88.2%
- % reduction in severity, Heart lesions [2]: −60%
- % reduction in severity, Liver lesions [2]: −50%
- log reduction in APEC load, Heart [2]: -0.5 Log CFU/g tissues
- log reduction in APEC load, Kidney [2]: -0.2 Log CFU/g tissues
- log reduction in APEC load, Liver [2]: -0.1 Log CFU/g tissues
- log reduction in APEC load, Lung [2]: -0.9 Log CFU/g tissues
- BWG (body weight gain) [2]: 214.9±31.9

Compound: COc1cc(NS(=O)(=O)c2ccc(N)cc2)nc(OC)n1 [SDM, sulfadimethoxine, reference compound]
- Cmax ([3]; commercial broiler, po, mean ± standard deviation, read-out: Peak plasma concentration (Cmax)): 994 ± 167 ng/mL
- Tmax ([3]; commercial broiler, po, postadministration, read-out: Time to maximum concentration (Tmax)): 24 h
- Absorption (time at which absorbed) ([3]; drinking water delivery): 2 h
- Residue concentration in muscle ([4]; 2 DPLT): 0.2 ± 0.1 ppm/g tissue
- Residue level in kidney ([4]; 2 DPLT): 1.0 ± 0.2 ppm/g tissue
- Residue level in liver ([4]; 2 DPLT): 0.2 ± 0.04 ppm/g tissue
- Residue concentration in muscle ([4]; 5 DPLT): 0.02 ± 0.02 ppm/g tissue
- Residue level in kidney ([4]; 5 DPLT): 1 ± 0.1 ppm/g tissue
- Residue level in liver ([4]; 5 DPLT): 0.04 ± 0.02 ppm/g tissue
- Residue concentration in muscle ([4]; 31 DPLT): 0.0 ± 0.0 ppm/g tissue
- Residue level in kidney ([4]; 31 DPLT): 0.0 ± 0.0 ppm/g tissue
- Residue level in liver ([4]; 31 DPLT): 0.0 ± 0.0 ppm/g tissue
- Mortality reduction compared to PC group ([5]; GI-7 60 mg/liter, SDM 495.3 mg/liter in drinking water, PC mortality 41.2%): 11.9%
- Mean APEC load, Heart ([5]; comparative efficacy trial): 5.6 Log CFU/g tissues
- Mean APEC load, Kidney ([5]; comparative efficacy trial): 5.5 Log CFU/g tissues
- Mean APEC load, Liver ([5]; comparative efficacy trial): 5.0 Log CFU/g tissues
- Mean APEC load, Lung ([5]; comparative efficacy trial): 6.2 Log CFU/g tissues
- log reduction in APEC load, Heart [5, 6]: 2.3 Log CFU/g tissues
- log reduction in APEC load, Kidney [5, 6]: 2.2 Log CFU/g tissues
- log reduction in APEC load, Liver [5, 6]: 2.5 Log CFU/g tissues
- log reduction in APEC load, Lung [5, 6]: 1.9 Log CFU/g tissues
- Cumulative lesion score ([5]; comparative efficacy, 7 dpi): 8.5
- Mean lesion score in Air sacs [5, 7]: 2.5
- Mean lesion score in Heart [5, 7]: 2.8
- Mean lesion score in Liver [5, 7]: 2.0
- Mean lesion score in Lung [5, 7]: 1.2
- % reduction in severity, Air sacs lesions ([5]; comparative efficacy, vs PC): 25.7%
- % reduction in severity, Heart lesions ([5]; comparative efficacy, vs PC): 20.8%
- % reduction in severity, Liver lesions ([5]; comparative efficacy, vs PC): 19.2%
- % reduction in severity, Lung lesions ([5]; comparative efficacy, vs PC): 36.9%
- Survival of chickens ([5]; floor trial, P < 0.1): increased the survival
- Overall BWG ([5]; in vivo): 2,408.1 g
- Overall FCR ([5]; in vivo): 1.49
